Assay results published in patent US10759740B2, “Antibacterial agents” (Rutgers, The State University of New Jersey, priority 2016, dated 2020).

Experiments:
[1] = tested on: G. vaginalis biofilm formation; test: Minimum biofilm inhibition concentration (MIC-B), crystal violet; format: cell-based, Gardnerella vaginalis; conditions: 48 h, vs untreated control, FIG. 7
Description: The MIC-B50 of an antimicrobial is defined as the lowest concentration of the antimicrobial that inhibits 50% of treated biofilm compared to the untreated one (control), while MIC-B90 was defined as the minimum biofilm inhibitory concentration that inhibits 90% (Sandoe et al., 2006. J Antimicrob Chemother 57:767-770). G. vaginalis cells were grown overnight in sBHI broth anaerobically at 37° C. The overnight culture was diluted in BHIG broth 1:100 (v:v) to achieve ˜10^6 CFU/ml for the biofilm inhibition assay. The CAms were diluted twofold with BHIG into a 96-well tissue culture microplate (Falcon, Corning Incorporated, Corning, N.Y., USA) with a final volume of 100 μl in each well. Aliquots of 100 μl of diluted cell suspensions at 10^6 CFU/ml were added separately to different concentrations of CAms in a 96-well tissue culture microplate. The microplate was incubated for 48 h at 37° C. under anaerobic conditions. After incubation, the number of non-adherent bacterial cells was counted using a spot plate method and compared with the number of cells of the non-treated control. Then, the intact biofilm was stained with 0.1% crystal violet.
This method was performed as described by Borucki et al. with minor modifications (Borucki et al., 2003. Appl Environ Microbiol 69:7336-7342). Briefly, after counting the non-adherent cells, the biofilm was fixed at 60° C. for 60 min. in an inverted position using an incubator (New Brunswick Scientific Co., Inc., NJ, USA). In each well, 125 μl of 0.1% crystal violet was added and left at room temperature for 20 min. Each well was then rinsed three to four times with 200 μl of ddH2O and left for 15 min. to dry at room temperature. To solubilize the biofilm-stained CV, 200 μl of 95% ethanol in water was added and the microplate was incubated at 4° C. for 30 min. One hundred microliter samples of solubilized CV were transferred to a new flat-bottomed 96-well microplate. The absorbance of each sample was measured using a plate reader at 595 nm (Model 550, Bio-Rad Laboratories, Hercules, Calif., USA).

[2] = tested on: G. vaginalis pre-formed biofilm; test: Minimum biofilm bactericidal concentration (MBC-B); format: cell-based, Gardnerella vaginalis; conditions: 24 h, ≥3 log reduction
Description: (§1) This assay was performed according to Algburi et al. (Algburi et al., 2015. Path Dis 73(5)) with minor modifications: the overnight-grown G. vaginalis was diluted to approximately 10^7 CFU/ml. For the biofilm formation assay, aliquots of 200 μl were added into a 96-well tissue culture microplate, sealed by amplification tape (Nalge Nunc International, Rochester, N.Y., USA) and incubated for 24-36 h at 37° C. After incubation, the planktonic cells were removed by gently washing the biofilm twice with 200 μl of fresh broth. The biofilm was then treated with 200 μl of a predetermined concentration of the tested compound. The microplate was incubated for 24 h at 37° C. under anaerobic conditions. After incubation, the antimicrobials (supernatant) were discarded and the biofilm was washed twice with fresh BHIG broth. The biofilm was then disrupted by vigorous pipetting, in order to determine the number of biofilm-associated cells using the spot plate method.

L. plantarum biofilm = test: Minimum biofilm bactericidal concentration (MBC-B); format: cell-based, Lactobacillus plantarum; conditions: pre-formed biofilm, ≥3 log reduction
Description: G. vaginalis ATCC 14019 strain was grown overnight in Brain Heart Infusion broth (Difco, Sparks, Md.) supplemented with 3% horse serum (sBHI) (JRH Biosciences, KS), while BHI supplemented with 1% glucose (BHIG) was used for biofilm formation assays. Each experiment using G. vaginalis was performed anaerobically (10% hydrogen, 5% carbon dioxide, and 85% nitrogen) within anaerobic glove boxes (Coy Laboratory Products, Inc., Grass Lake, Mich., USA). Three species of vaginal Lactobacillus were used in this study to evaluate the possible harmful effects of CAms on beneficial bacteria: Lactobacillus plantarum ATCC 39268, Lactobacillus rhamnosus 160 (provided by Dr. Aroutcheva, Rush University Medical Center) and Lactobacillus gasseri ATCC 33323; all were grown for 18-24 h in DeMan, Rogosa and Sharpe broth (MRS Difco B D, Franklin Lakes, N.J., USA) under aerobic conditions at 37° C. For lactobacilli biofilm formation, MRS broth supplemented with 1% glucose and 2% sucrose (Fisher Scientific, Waltham, Mass., USA) was utilized.
as §1

[3] = tested on: planktonic cells of G. vaginalis; test: Checkerboard assay, planktonic cells; format: cell-based, Gardnerella vaginalis; conditions: for MIC of CAm in combination with metronidazole: 24 h; for MIC: read-out: MIC when used alone
Description: To evaluate the potential effectiveness of the antimicrobial combinations on planktonic and biofilm cells, a checkerboard assay was performed following Algburi et al. (Algburi et al., 2015. Path Dis 73(5)) with minor modifications. For planktonic cells, the overnight grown G. vaginalis was diluted to approximately 10^6 CFU/ml. Each antimicrobial agent was diluted twofold with sBHI broth into two separate 96-well non-tissue culture microplates. From each dilution of antimicrobial B, 50 μl was added horizontally over 50 μl of antimicrobial A. Then, 100 μl of bacterial suspension (10^6 CFU/ml) was separately added to the predetermined concentration of antimicrobial combinations. The MIC of each combination was determined after 24 h of incubation.
Isobolograms were used to compare the MIC and MBC-B values of each antimicrobial alone with its MIC and MBC-B values in combination with other antimicrobials. The point on the axis (X) refers to MIC or MBC-B values of the first antimicrobial with the coordinates (0, x), and the point on the axis (Y) represents the MIC or MBC-B values of the second antimicrobial with the coordinates (y, 0) when they used alone. The two MIC or MBCs-B values are connected by a dashed line (Turovskiy Y, Chikindas M L. 2011 Probiotics Antimicrob Proteins 3:144-149). The MICs or MBCs-B of each antimicrobial combination are plotted as dots on the graph. Results are expressed according to the locations of these dots from the line that connects MICs or MBCs-B of the first and second antimicrobials. When MICs or MBCs-B values are located under the line, the two combining antimicrobials are synergized, but antagonized against the tested microorganism when these dots of interaction are above. An additive effect is observed when these dots are located on the line.

SMILES	MIC-B: concentration preventing 50% or >50% of biofilm formation [1]	MBC-B G. vaginalis [2]	MBC-B L. plantarum (L. plantarum biofilm)	MIC of CAm in combination with metronidazole [3]	MIC [3]
CCCCCCCCCCOC(C(=O)NCCN)C(OCCCCCCCCCC)C(=O)NCCN.Cl.Cl (stereo not drawn) [5b]	1.6 µM	425.6 µM	>850 µM	0.2 µM	1.1 µM
CCCCCCCC(=O)OC(C(=O)NCCN)C(OC(=O)CCCCCCC)C(=O)NCCN.Cl.Cl (stereo not drawn) [8a]	7.2 µM	117.6 µM	>890 µM	3.4 µM	24.4 µM
CCCCCCCCCC(=O)OC(C(=O)NCCN)C(OC(=O)CCCCCCCCC)C(=O)NCCN.Cl.Cl (stereo not drawn) [8b]	3.2 µM	425.6 µM	>810 µM	0.2 µM	10 µM
